According to US12558343B2, “Medical use of icaritin” (Lunan Pharmaceutical Group Corporation, priority 2020, dated 2026):
Read-outs that look alike come from different tables or passages of the source. Marks after values point to notes of the source that are not given here.

Assays:
[1] = test system: IX-knockout mice with hemophilia; experiment: Tail-cut bleeding time of coagulation factor IX-knockout mice with hemophilia; format: in vivo
Procedure: One hour after the last administration, the tails of the mice were cut and bleeding time of each mouse was measured.

[2] = test system: activated partial thromboplastin time; experiment: Activated partial thromboplastin time, rabbit model of acquired hemophilia A; format: in vivo, New Zealand rabbits
Procedure: Twenty-four healthy New Zealand rabbits were selected and randomly divided into a control group, a model group and a treatment group with 8 rabbits in each group. Each rabbit weighed about 1.5 kg. The rabbits were fed in separate stainless steel cages at a room temperature of 18-25° C. The rabbits in each group were given a normal diet without any special treatment. One week later, the rabbit was anesthetized with 2% pentobarbital (1.5 ml/kg) via the marginal ear vein, and the left femoral vein of the rabbit was isolated and exposed for injection. The plasma of patients with acquired hemophilia A (confirmed by the Department of Hematology, Linyi People's Hospital) was intravenously injected into the rabbits in the model group and the treatment group at 2 ml/kg of rabbit body weight. The rabbits in the treatment group were immediately intragastrically administrated with icaritin at 18 mg/kg after the injection was completed and the rabbits in the model group were intragastrically administrated with a same amount of normal saline. The rabbits in the control group were intravenously injected with a same amount of normal human plasma. Blood was drawn from the marginal ear vein 30 min before and 30 min, 60 min, 90 min, and 120 min after the injection of the plasma separately, 3.8% of sodium citrate (1:9) was added for anticoagulation, and the anticoagulated blood was centrifuged at 3,000 r/m to separate plasma.
Referring to the instructions of the kit, 0.1 mL of rabbit plasma was taken, 0.1 mL of a thromboplastin time reagent was added, the materials were mixed, an obtained mixture was subjected to warm bath at 37° C. for 2 min, 0.1 mL of 0.025 M calcium chloride pre-warmed at 37° C. was added, the materials were uniformly mixed, a value of thromboplastin time at each time point was measured by immediately starting a stopwatch, the thromboplastin time at each time point was repeatedly detected twice, and an average value was obtained.

[3] = mouse, in vivo
Procedure: After the grouping, the mice in the normal group and the model group were intragastrically administrated with 10 ml/kg of an icaritin solvent which was prepared by adding 12 g of hypromellose E5 and 0.1 g of sodium lauryl sulfate into 1 L of water. […] One hour after the last pre-administration, the mice in the model group and each administration group were injected with 150 U/kg of a heparin sodium injection through a tail vein to establish a model, and the mice in the normal group were injected with 10 ml/kg of a sodium chloride injection through a tail vein.
After the bleeding time was detected, the mice were anesthetized with sodium pentobarbital, blood was collected from an abdominal cardinal vein, and indicators of blood routine examination and four coagulation indicators (prothrombin time, thromboplastin time, thrombin time, and fibrinogen) were detected.

[4] = test system: hemorrhagic transformation model induced by clopidogrel combined with cerebral ischemia-reperfusion; experiment: Hemorrhagic transformation after cerebral ischemia-reperfusion (MCAO) caused by clopidogrel, bleeding rate; format: in vivo, ICR mice; conditions: for Number of animals with cerebral hemorrhage: 24 h after MCAO; for Bleeding rate %: model group 80.0
Procedure: (§1) 5-week-old ICR male mice were fed to 6-week-old and divided into a control group, a model group, an icaritin-3 mg/kg group, an icaritin-6 mg/kg group, an icaritin-12 mg/kg group, and an icariin-12 mg/kg group according to body weight. From day 1 to day 3 after the grouping, the mice in each icaritin group were separately intragastrically administrated with 3, 6, and 12 mg/kg of icaritin and the mice in the icariin group was intragastrically administrated with 12 mg/kg of icariin once a day, and the mice in other groups were intragastrically administrated with a corresponding vehicle; and except the control group, the mice in other groups were intragastrically administrated with aspirin (100 mg/kg) or clopidogrel (15 mg/kg) once a day at a volume of 10 mL/kg.
(§2) On day 3, 10 min after the administration, the mice were anesthetized by intraperitoneal injection of 70 mg/kg of pentobarbital sodium and subjected to a cerebral ischemia-reperfusion (middle cerebral artery occlusion, MCAO) surgery with ischemia for 1 h and reperfusion for 23 h.
(§3) 24 h after the surgery was an end point of the experiment.
(§4) Bleeding rate: the mice were anesthetized by intraperitoneal injection of 70 mg/kg of pentobarbital sodium, a brain tissue was taken out, cerebral hemorrhage was recorded and a bleeding rate of the mice in each group was calculated. Cerebral hemorrhage rate %=number of animals with cerebral hemorrhage/number of surviving animals in each group×100.

[5] = test system: hemorrhagic transformation model induced by aspirin combined with cerebral ischemia-reperfusion; experiment: Hemorrhagic transformation after cerebral ischemia-reperfusion (MCAO) caused by aspirin, bleeding rate; format: in vivo, ICR mice; conditions: for Number of animals with cerebral hemorrhage: 24 h after MCAO; for Bleeding rate %: model group 85.7
Procedure: as §1, §2, §3, §4

[6] = test system: gastrointestinal bleeding caused by aspirin; experiment: Gastrointestinal bleeding caused by aspirin in rats, gastric mucosal bleeding; format: in vivo, SD rats; conditions: icaritin 18 mg/kg i.g. with aspirin 500 mg/kg i.g., 24 h
Procedure: After 24 h of the intragastric administration, the rats were anesthetized, sacrificed, and dissected. Bleeding, erosion and ulcers of the gastric mucosa surface of the rats were observed.

[7] = Blood routine examination of rats before/after icaritin (Efficacy Example 1); format: in vivo, SD rats
Procedure: Twenty-four rats were taken and divided into 3 groups with 8 rats in each group. […] 1.0 mL of blood was collected from the orbits before administration and 20 min after a last administration, wherein 0.5 mL was used for a blood routine examination and 0.5 mL was used to prepare anticoagulated blood. The blood was treated and analyzed on the flow cytometer according to the detection method of platelet activation by flow cytometry. An activation rate of platelets activated by adenosine diphosphate (basic value) before administration and an activation rate of platelets activated by adenosine diphosphate after administration were compared. At the same time, 50 μL of anticoagulated blood was taken from the rats before administration, adenosine diphosphate was not added, and a spontaneous activation rate of the anticoagulated blood of animals was measured using the same method. The animals were fasted for 16-24 h before each blood sampling.

Fibrinogen ([3]; 2 mg/kg): 1.83 ± 0.22 g/L | Prothrombin time ([3]; 2 mg/kg): 10.12 ± 1.34 s | Thrombin time ([3]; 2 mg/kg): 22.23 ± 2.01 s | Thromboplastin time ([3]; 2 mg/kg): 25.19 ± 1.90 s | Fibrinogen ([3]; 6 mg/kg): 1.82 ± 0.56 g/L | Prothrombin time ([3]; 6 mg/kg): 11.23 ± 1.45 s | Thrombin time ([3]; 6 mg/kg): 24.09 ± 1.99 s | Thromboplastin time ([3]; 6 mg/kg): 25.09 ± 2.22 s | Fibrinogen ([3]; 18 mg/kg): 2.01 ± 0.52 g/L | Prothrombin time ([3]; 18 mg/kg): 9.98 ± 1.23 s | Thrombin time ([3]; 18 mg/kg): 25.54 ± 1.78 s | Thromboplastin time ([3]; 18 mg/kg): 24.55 ± 2.66 s | Concentration of hemoglobin ([7]; 3 mg/kg i.g. 3 days): 180500 ± 11200 µg/mL | Number of erythrocytes ([7]; 3 mg/kg i.g. 3 days): 7.213 ± 0.554 10^12/L | Number of leukocytes ([7]; 3 mg/kg i.g. 3 days): 1.832 ± 0.154 10^9/L | Number of platelets ([7]; 3 mg/kg i.g. 3 days): 1124 ± 209 10^9/L | Concentration of hemoglobin ([7]; 6 mg/kg i.g. 3 days): 179000 ± 9200 µg/mL | Number of erythrocytes ([7]; 6 mg/kg i.g. 3 days): 6.783 ± 0.871 10^12/L | Number of leukocytes ([7]; 6 mg/kg i.g. 3 days): 1.653 ± 0.421 10^9/L | Number of platelets ([7]; 6 mg/kg i.g. 3 days): 1397 ± 143 10^9/L | Concentration of hemoglobin ([7]; 18 mg/kg i.g. 3 days): 181600 ± 9500 µg/mL | Number of erythrocytes ([7]; 18 mg/kg i.g. 3 days): 7.235 ± 0.656 10^12/L | Number of leukocytes ([7]; 18 mg/kg i.g. 3 days): 1.761 ± 0.335 10^9/L | Number of platelets ([7]; 18 mg/kg i.g. 3 days): 1249 ± 166 10^9/L
Compound: COc1ccc(-c2oc3c(CC=C(C)C)c(O)cc(O)c3c(=O)c2O)cc1 [Icaritin]
Bleeding time ([1]; group B, 3 mg/kg i.g. once a day 11 days, 1 h after last administration, control 37.8 ± 12.4): 25.5 ± 8.9 min | Bleeding time ([1]; group C, 6 mg/kg i.g. once a day 11 days): 20.4 ± 6.9 min | Bleeding time ([1]; group D, 18 mg/kg i.g. once a day 11 days): 16.5 ± 9.7 min | Thromboplastin time ([2]; icaritin 18 mg/kg i.g. after plasma injection, 30 min after injection): 40.4 ± 3.23^$ | Thromboplastin time ([2]; icaritin 18 mg/kg i.g., 60 min after injection): 39.9 ± 4.09$ $ | Thromboplastin time ([2]; icaritin 18 mg/kg i.g., 90 min after injection): 40.4 ± 5.67$ $ | Thromboplastin time ([2]; icaritin 18 mg/kg i.g., 120 min after injection): 41.3 ± 6.21^$ $ | Thromboplastin time ([2]; treatment group, 30 min before injection of patient plasma (before icaritin)): 36.8 ± 4.12 | Number of animals with cerebral hemorrhage ([4]; 3 mg/kg i.g. Day 1-3 with clopidogrel 15 mg/kg, of 7 animals): 3 | Bleeding rate % ([4]; 3 mg/kg i.g. Day 1-3 with clopidogrel 15 mg/kg): 42.9% | Number of animals with cerebral hemorrhage ([4]; 6 mg/kg i.g. Day 1-3 with clopidogrel 15 mg/kg, of 8 animals): 2 | Bleeding rate % ([4]; 6 mg/kg i.g. Day 1-3 with clopidogrel 15 mg/kg): 25.0% | Number of animals with cerebral hemorrhage ([4]; 12 mg/kg i.g. Day 1-3 with clopidogrel 15 mg/kg, of 8 (icaritin) or 7 (icariin) animals): 2 | Bleeding rate % ([4]; 12 mg/kg i.g. Day 1-3 with clopidogrel 15 mg/kg): 25.0% | Number of animals with cerebral hemorrhage ([5]; 3 mg/kg i.g. Day 1-3 with aspirin 100 mg/kg, of 8 animals): 3 | Bleeding rate % ([5]; 3 mg/kg i.g. Day 1-3 with aspirin 100 mg/kg): 37.5% | Number of animals with cerebral hemorrhage ([5]; 6 mg/kg i.g. Day 1-3 with aspirin 100 mg/kg, of 8 animals): 2 | Bleeding rate % ([5]; 6 mg/kg i.g. Day 1-3 with aspirin 100 mg/kg): 25.0% | Number of animals with cerebral hemorrhage ([5]; 12 mg/kg i.g. Day 1-3 with aspirin 100 mg/kg, of 9 (icaritin) or 8 (icariin) animals): 2 | Bleeding rate % ([5]; 12 mg/kg i.g. Day 1-3 with aspirin 100 mg/kg): 22.2% | Bleeding rate ([6]; model group 66.7): 16.7^## % | Number of bleeding animals ([6]; of 12 rats): 2
